Source: patent publication US20160207930A1 (LEO PHARMA A/S, priority 2013, published 2016)
pIC50: −log10 of the molar value.

Columns and labels:
NK1 Receptor = biological target: T1, NK1 Receptor (Homo sapiens, UniProt P25103); test: NK1 receptor mediated intracellular [Ca2+] mobilization in U251 MG cells using FLIPR; format: cell-based; conditions: antagonism of Substance P (EC80), Fluo-4, read-out: NK1R mediated intracellular [Ca^2+] mobilization IC 50
T1 construct: Measurement of NK1 Receptor Mediated Intracellular [Ca^2+]; Mobilization in U251 MG Cells Using FLIPR; endogenous in cells; host or cells: U251 MG cells
In short: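 Fluo-4-loaded U251 MG cells preincubated with compound (0.5% DMSO final), checked 5 min for agonism, then 10 min at 37 °C before Substance P at EC80. Peak fluorescence change on FLIPR, normalized to 100 nM Aprepitant maximal response; IC50 by four-parameter logistic fit, reported as pIC50.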

[1] = Hepatic intrinsic clearance following incubation in human liver microsomes; format: in vitro ADME; conditions: 0.5 μM test compound, NADPH, 0-30 min, scaled to g liver
In short: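 Compound incubated at 37° C with microsomes diluted to 0.55 mg/mL protein in 50 mM potassium phosphate pH 7.4 plus NADPH regenerating system; sampled 0–30 min and analysed by LC-MS/MS. Clint from ln(% parent remaining) slope, scaled to mL/min/g liver; Eh derived assuming 25.7 g/kg liver, 20.7 mL/min/kg blood flow.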

T1 sequence (P25103 whole entry): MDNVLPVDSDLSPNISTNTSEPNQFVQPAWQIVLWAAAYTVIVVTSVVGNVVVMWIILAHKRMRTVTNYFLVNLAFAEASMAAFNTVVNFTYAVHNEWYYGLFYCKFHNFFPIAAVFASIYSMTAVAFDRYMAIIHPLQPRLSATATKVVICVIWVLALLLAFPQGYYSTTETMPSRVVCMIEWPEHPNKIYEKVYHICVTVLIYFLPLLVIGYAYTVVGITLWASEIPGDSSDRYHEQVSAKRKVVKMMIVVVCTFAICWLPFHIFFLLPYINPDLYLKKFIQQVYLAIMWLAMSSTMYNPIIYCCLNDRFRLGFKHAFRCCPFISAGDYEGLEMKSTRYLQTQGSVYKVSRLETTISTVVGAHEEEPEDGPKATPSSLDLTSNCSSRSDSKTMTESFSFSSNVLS

Cc1cc(F)ccc1[C@H]1[C@@H]2CC(CCO)(CCO)C(=O)N2CCN1C(=O)N(C)[C@H](C)c1cc(C(C)C)cc(C(F)(F)F)c1 [Compound 25, (1S,8aS)-1-(4-fluoro-2-methylphenyl)-7,7-bis(2-hydroxyethyl)-N—((R)-1-(3-isopropyl-5-(trifluoromethyl)phenyl)ethyl)-N-methyl-6-oxohexahydropyrrolo[1,2-a]pyrazine-2(1H)-carboxamide]
pIC50 (NK1 Receptor): 10.10
Human in vitro Clint [1]: 128 mL/min/g

CCc1cc([C@@H](C)N(C)C(=O)N2CCN3C(=O)CC[C@H]3[C@@H]2c2cscc2C)cc(C(F)(F)F)c1 [Compound 49, (1S,8aS)—N—((R)-1-(3-ethyl-5-(trifluoromethyl)phenyl)ethyl)-N-methyl-1-(4-methylthiophen-3-yl)-6-oxohexahydropyrrolo[1,2-a]pyrazine-2(1H)-carboxamide]
pIC50 (NK1 Receptor): 9.00
Human in vitro Clint [1]: >200 mL/min/g

C[C@H](c1cc(C(F)(F)F)cc(C(F)(F)F)c1)N(C)C(=O)N1CCN2C(=O)CC[C@H]2[C@@H]1c1ccc(F)cc1 [Compound 85, (1S,8aS)—N—((R)-1-(3,5-bis(trifluoromethyl)phenyl)ethyl)-1-(4-fluorophenyl)-N-methyl-6-oxohexahydropyrrolo[1,2-a]pyrazine-2(1H)-carboxamide]
pIC50 (NK1 Receptor): 7.00
Human in vitro Clint [1]: >200 mL/min/g

CCc1cc([C@@H](C)N(C)C(=O)N2CCN3C(=O)CC[C@H]3[C@@H]2c2ccccc2C)nc(C(F)(F)F)c1 [Compound 32, (1S,8aS)—N—((R)-1-(4-ethyl-6-(trifluoromethyl)pyridin-2-yl)ethyl)-N-methyl-6-oxo-1-o-tolylhexahydropyrrolo[1,2-a]pyrazine-2(1H)-carboxamide]
pIC50 (NK1 Receptor): 9.18
Human in vitro Clint [1]: >200 mL/min/g

CCc1cc([C@@H](C)N(C)C(=O)N2CCN3C(=O)CC[C@H]3[C@@H]2c2ccccc2CC)cc(C(F)(F)F)c1 (single isomer, unassigned) [Compound 71]
pIC50 (NK1 Receptor): 7.31
Human in vitro Clint [1]: >200 mL/min/g

Cc1cc([C@@H](C)N(C)C(=O)N2CCN3C(=O)CC[C@H]3[C@@H]2c2ccc(F)cc2C)cc(C(F)(F)F)c1 [Compound 21, (1S,8aS)-1-(4-fluoro-2-methylphenyl)-N-methyl-N—((R)-1-(3-methyl-5-(trifluoromethyl)phenyl)ethyl)-6-oxohexahydropyrrolo[1,2-a]pyrazine-2(1H)-carboxamide]
pIC50 (NK1 Receptor): 10.08
Human in vitro Clint [1]: 36 mL/min/g

Cc1ccc(C2C3CC(CCO)(CCO)C(=O)N3CCN2C(=O)N(C)[C@H](C)c2cc(C(F)(F)F)cc(C(F)(F)F)c2)c(C)c1 (single isomer, unassigned) [Compound 6]
pIC50 (NK1 Receptor): 8.80
Human in vitro Clint [1]: >200 mL/min/g

Cc1cc([C@@H](C)N(C)C(=O)N2CCN3C(=O)CC[C@H]3[C@@H]2c2cccc(C)c2C)cc(C(F)(F)F)c1 [Compound 65]
pIC50 (NK1 Receptor): 9.44
Human in vitro Clint [1]: >200 mL/min/g

Cc1nn(C)cc1[C@H]1[C@@H]2CCC(=O)N2CCN1C(=O)N(C)[C@H](C)c1cc(C(F)(F)F)cc(C(F)(F)F)c1 [Compound 64, (1S,8aS)—N—((R)-1-(3,5-bis(trifluoromethyl)phenyl)ethyl)-1-(1,3-dimethyl-1H-pyrazol-4-yl)-N-methyl-6-oxohexahydropyrrolo[1,2-a]pyrazine-2(1H)-carboxamide]
pIC50 (NK1 Receptor): 8.91
Human in vitro Clint [1]: 67 mL/min/g

Cc1cc(F)ccc1[C@H]1[C@@H]2CCC(=O)N2CCN1C(=O)N(C)[C@H](C)c1cc(C(C)C)cc(C(F)(F)F)c1 [Compound 22, (1S,8aS)-1-(4-fluoro-2-methylphenyl)-N-(1-(3-isopropyl-5-(trifluoromethyl)phenyl)ethyl)-N-methyl-6-oxohexahydropyrrolo[1,2-a]pyrazine-2(1H)-carboxamide]
pIC50 (NK1 Receptor): 9.71
Human in vitro Clint [1]: >200 mL/min/g

CCc1ccccc1[C@H]1[C@@H]2CCC(=O)N2CCN1C(=O)N(C)[C@H](C)c1cc(C(F)(F)F)cc(C(F)(F)F)c1 (single isomer, unassigned) [Compound 69]
pIC50 (NK1 Receptor): 7.96
Human in vitro Clint [1]: >200 mL/min/g

Cc1ccc(C)c([C@H]2[C@@H]3CC(CCO)(CCO)C(=O)N3CCN2C(=O)N(C)[C@H](C)c2cc(C(C)C)cc(C(F)(F)F)c2)c1 [Compound 38, (1S,8aS)-1-(2,5-dimethylphenyl)-7,7-bis(2-hydroxyethyl)-N—((R)-1-(3-isopropyl-5-(trifluoromethyl)phenyl)ethyl)-N-methyl-6-oxohexahydropyrrolo[1,2-a]pyrazine-2(1H)-carboxamide]
pIC50 (NK1 Receptor): 9.93
Human in vitro Clint [1]: 157 mL/min/g

COc1ccc([C@H]2[C@@H]3CC(CCO)(CCO)C(=O)N3CCN2C(=O)N(C)[C@H](C)c2cc(C)cc(C(F)(F)F)c2)c(C)c1 [Compound 17, (1S,8aS)-7,7-bis(2-hydroxyethyl)-1-(4-methoxy-2-methylphenyl)-N-methyl-N—((R)-1-(3-methyl-5-(trifluoromethyl)phenyl)ethyl)-6-oxohexahydropyrrolo[1,2-a]pyrazine-2(1H)-carboxamide]
pIC50 (NK1 Receptor): 9.10
Human in vitro Clint [1]: >200 mL/min/g

CCc1cc([C@@H](C)N(C)C(=O)N2CCN3C(=O)CC[C@H]3[C@@H]2c2sccc2C)cc(C(F)(F)F)c1 [Compound 51, (1R,8aS)—N—((R)-1-(3-ethyl-5-(trifluoromethyl)phenyl)ethyl)-N-methyl-1-(3-methylthiophen-2-yl)-6-oxohexahydropyrrolo[1,2-a]pyrazine-2(1H)-carboxamide]
pIC50 (NK1 Receptor): 10.26
Human in vitro Clint [1]: >200 mL/min/g
